Laboratory results reported in patent US20130064815A1, “INDUCING APOPTOSIS IN QUIESCENT CELLS” (THE TRUSTEES OF PRINCETON UNIVERSITY, priority 2011, published 2013).

Assays:
[1] = tested on: primary human fibroblasts; assay: caspase 3/7 activity apoptosis assay (ApoTox-Glo) in proliferating and quiescent fibroblasts; format: cell-based; settings: for effect on MG132-induced apoptosis: 2-ME with increasing MG132
Protocol: Referring to FIG. 2A, primary human fibroblasts were tested either in a proliferating state or after being induced into quiescence. Quiescence may be induced by either contact inhibition or serum starvation. Cells were treated with DHEA for four days, with bafilomycin added on the fourth day. Apoptosis was assessed based on the activity of caspase 3/7 for a fluorogenic substrate.
PPP inhibition and apoptosis analysis: Apoptosis was measured based on the levels of caspase 3/7 released into the media using the ApoTox-Glo Triplex Assay according to the manufacturer's instructions (Promega Corp., Madison, Wis.). Cells were plated in triplicate at 10,000 cells per well in white-walled, clear-bottom 96-well plates (Costar, Corning Life Sciences, Lowell, Mass.). For contact inhibition, cells were plated 7 days prior to the start of treatment, for serum starvation cells were plated 4 days prior to treatment and switched to 0.1% serum media for the remaining 3 days, while proliferating cells were plated the day prior to the start of treatment. […] Cells in serum starvation conditions were incubated in 0.1% serum during treatment as well. The apoptosis reagent was added at 100 μl per well and incubated for 1 h prior to reading. Luminescence was read from the top using a Synergy-2 plate reader (Biotek, Winooski, Vt.). Luminescence data were normalized to the vehicle only condition.
Apoptosis induction was assessed by monitoring caspase 3/7 activity using a luminescent caspase substrate. This assay is optimized for high-throughput screening in 96-well plates and allows multiple concentrations and combination of drugs to be tested in triplicate at different time points. […] Therefore, this assay was used to compare proliferating and serum-starved cells only.

LC3-II = LC3-II immunoblot (autophagy / autophagic flux); format: cell-based, human
Protocol: (§1) The levels of autophagy components—Atg5/Atg12, Atg7, Atg3, and LC3-I and LC3-II—were monitored in proliferating and contact-inhibited fibroblasts using immunoblotting (FIG. 21A). As a positive control for autophagy induction, samples of cells in each cell cycle state were also incubated in Kreb's Ringer Bicarbonate solution (KRB), a protocol that induces autophagy through amino acid starvation and elimination of other nutrients except glucose. Levels of Atg5/Atg12, Atg7, and LC3-II were elevated in all of the amino acid starvation and contact-inhibition states as compared to the proliferating state (FIG. 21A). Atg3 was induced in all quiescent states compared with proliferating states, including amino acid starvation. In order to differentiate whether the high levels of autophagy proteins resulted from a blockade of autophagy degradation or active flux through the pathway, we monitored the levels of LC3-II in proliferating and 7 dCI fibroblasts in the presence of bafilomycin A1 (Baf-A1). Baf-A1 is a vacuolar-type H^+-ATPase inhibitor that prevents autophagosome fusion with the lysosome due to an increase in lysosomal pH. […] This finding is consistent with active autophagic flux in quiescent fibroblasts
In addition to its role in providing amino acids and energy under starvation conditions, autophagy is involved in maintenance of cellular homeostasis and resistance to tumorigenesis through degradation of old or damaged proteins and entire organelles. It was hypothesized that autophagy in contact-inhibited cells could function to degrade old and/or damaged proteins that would otherwise accumulate in the cytoplasm due to lack of cell division as a mechanism for dilution of these proteins. Oxidation of proteins causes the formation of carbonyl groups on amino acids, and carbonylation can disrupt protein function. To monitor the extent of protein oxidation in proliferating and contact-inhibited fibroblasts, the protein carbonyl groups were derivatized using 2,4-dinitrophenylhydrazine (DNP), and monitored using immunoblotting with an antibody that recognizes the covalently added DNP. The levels of oxidized proteins in proliferating and 7 dCI fibroblasts were monitored in cells that were either competent to perform autophagy (control), or were stably expressing an shRNA against the essential autophagy components Atg5 (sh-Atg5) or Atg7 (sh-Atg7), which are known to represent autophagy-defective phenotypes in other model systems. […] In contact-inhibited fibroblasts, in contrast, the levels of oxidized proteins increased 1.5-fold±0.1 in 7 dCI sh-Atg5 fibroblasts as compared to vector control counterparts (p=0.009) (FIG. 22B). […]
To test this hypothesis, the levels of an autophagy-specific form of the LC3 protein, LC3 II, were monitored compared to a housekeeping protein (Klionsky et al., 2008, “Guidelines for the use and interpretation of assays for monitoring autophagy in higher eukaryotes,” Autophagy 4, 151-175, which is incorporated herein by reference as if fully set forth). […]
We observed an increase in the ratio of LC3 II to GAPDH in response to MG132 treatment for cells in proliferating, contact-inhibited and serum-starved states (FIG. 25B). To test whether the high levels of LC3 II in quiescent cells in response to MG132 treatment result from a blockade of autophagy degradation or from active flux through the pathway, LC3 II levels were monitored in proliferating and quiescent fibroblasts treated with MG132 in the presence or absence of bafilomycin A1 (Baf). […]

p62/SQSTM1 = assay: p62 immunoblot (autophagic flux); format: cell-based, human; settings: contact-inhibited (7 dCI) fibroblasts vs proliferating or vehicle/non-treated controls
Protocol: as §1

[2] = tested on: skin papillomas and carcinomas; settings: cited from earlier work; for skin papilloma development: mouse
[3] = tested on: neoplasms, lymphoblastic lymphoma; settings: p53-deficient mouse; cited from earlier work
[4] = tested on: proliferating and quiescent fibroblasts; assay: annexin V / PI flow cytometry after proteasome inhibition; format: cell-based, human; settings: 24 hours
Protocol: To elucidate the responses of proliferating and quiescent fibroblasts to proteasome inhibition, the effects of known proteasome inhibitors on proliferating and quiescent fibroblasts were examined.
At the highest dose (10 μM), approximately 50% of proliferating cells were apoptotic (FIG. 24A-lower right (Q4), upper right (Q2), and upper left (Q1) quadrants represent early apoptosis, late apoptosis, and very late apoptosis or necrosis, respectively). In comparison, quiescent fibroblasts were largely unaffected by MG132 treatment, showing far lower levels of apoptosis.

[5] = tested on: four day serum starved fibroblasts; assay: induction of apoptosis in quiescent fibroblasts by DHEA and/or autophagy inhibitor combined with proteasome inhibitors; format: cell-based, human; settings: proteasome inhibitor alone; four day serum starved fibroblasts
Protocol: Referring to FIG. 17, the effect of treatment using DHEA and/or an autophagy inhibitor combined with proteasome inhibitors on apoptosis in quiescent cells was analyzed.
In this experiment, the proteasome inhibitor, bortezomib, was used in varying concentrations with DHEA during a 48 hour treatment.

breast cancer cell lines = settings: cited from earlier work
tumor cells = settings: intraperitoneal injection of tumor cells; cited from earlier work

Q: Which “effect on MG132-induced caspase 3/7 activity” value ([1]; 100 nM Baf, proliferating cells, 24 hours post treatment) does the source give for CO/C1=C\C(C)=C\[C@@H](C)[C@@H](O)[C@@H](C)C/C(C)=C/C=C/[C@H](OC)[C@@H]([C@@H](C)[C@@H](O)[C@H](C)[C@@]2(O)C[C@@H](O)[C@H](C)[C@@H](C(C)C)O2)OC1=O [Baf, bafilomycin A1] here?
A: slight reduction

Q: And the “effect on MG132-induced apoptosis (caspase 3/7)” value ([1]; 100 nM Baf, proliferating fibroblasts, 48 hours post treatment)?
A: no significant effect

Q: What about the “effect on MG132-induced apoptosis (caspase 3/7)” value ([1]; 100 nM Baf, serum-starved fibroblasts) of the same compound?
A: strongly enhanced

Q: What about the “effect on bortezomib-induced caspase 3/7 activity” value ([1]; proliferating fibroblasts, 24 hours post treatment) of the same compound?
A: reduced

Q: And the “effect on bortezomib-induced caspase 3/7 activity” value ([1]; proliferating fibroblasts, after 48 hours)?
A: little effect

Q: And the “induction of apoptosis in the presence of Baf vs MG132 alone” value ([1]; serum-starved fibroblasts, 48 hours, 10 μM MG132)?
A: more than doubled

Q: What about the “LC3 II to GAPDH ratio vs MG132 alone” value (LC3-II; Baf combined with MG132, serum-starved cells) of the same compound?
A: did not change

Q: What about the “LC3 II to GAPDH ratio vs MG132 alone” value (LC3-II; Baf in conjunction with MG132, proliferating and contact-inhibited cells) of the same compound?
A: further increase

Q: And the “ratio of LC3 II to GAPDH” value (LC3-II; Baf-treated proliferating and quiescent cells)?
A: increase

Q: And the “levels of LC3-II” value (LC3-II; contact-inhibited (7 dCI) fibroblasts vs proliferating or vehicle/non-treated controls)?
A: further increase

Q: What about the “levels of p62/SQSTM1” value (p62/SQSTM1) of the same compound?
A: further increase

Q: Which results are given for C[C@]12CCCCC1=CC[C@@H]1[C@@H]2CC[C@]2(C)C(=O)[C@H](F)C[C@@H]12 [16α-fluoro-5-androsten-17-one]?
A: skin papilloma development [2]: effective in inhibiting skin papilloma development; death due to neoplasms [3]: delay death due to neoplasms

Q: Which “reduction of viability of proliferating cells” value ([4]; 1 μM) does the source give for CC[C@H](C)[C@H](NC(=O)[C@H]([C@@H](C)CC)N(C)C(C)=O)C(=O)N[C@H](C(=O)N[C@@H](CC(C)C)C(=O)[C@@]1(C)CO1)[C@@H](C)O [epoxomicin] here?
A: ~50%

Q: And the “proliferating cell viability (fraction PI negative)” value ([4]; proliferating cells)?
A: statistically significant, dose-dependent decrease

Q: And the quiescent cell viability ([4]; quiescent cells, up to 10 μM MG132, 1 μM epoxomicin)?
A: maintained high viability

Q: With COc1cc2c(cc1O)CC[C@@H]1[C@@H]2CC[C@]2(C)[C@@H](O)CC[C@@H]12 [2-ME, 2-methoxyestradiol] as the compound, how does the “effect on MG132-induced apoptosis” value ([1]; proliferating fibroblasts) read?
A: little effect

Q: What about the “effect on MG132-induced apoptosis” value ([1]; serum-starved fibroblasts) of the same compound?
A: sensitized

Q: Which results are given for CC(C)C[C@H](NC(=O)[C@H](Cc1ccccc1)NC(=O)c1cnccn1)B(O)O [bortezomib]?
A: induction of apoptosis (caspase 3/7) ([1]; bortezomib, serum-starved compared to proliferating fibroblasts): relatively low; apoptotic induction [5]: did not result in apoptotic induction

Q: Which skin papilloma development [2] does the source give for C[C@]12CCCC[C@@H]1CC[C@@H]1[C@@H]2CC[C@]2(C)C(=O)[C@H](F)C[C@@H]12 [16a-fluoro-5a-androstan-17-one] here?
A: effective in inhibiting skin papilloma development

Q: With FC(F)(F)c1ccc2c(NCCCN3CCN(c4ccnc5cc(Cl)ccc45)CC3)ccnc2c1 [{3-[4-(7-chloro-quinolin-4-yl)-piperazin-1-yl]-propyl}-(7-rifluoromethyl-quinolin-4-yl)-amine] as the compound, how does the antiproliferative effects (breast cancer cell lines) read?
A: very effective

Q: With FC(F)(F)c1ccc2c(N3CCN(CCCNc4ccnc5cc(Cl)ccc45)CC3)ccnc2c1 [7-chloro-N-(3-(4-(7-trifluoromethyl)quinolin-4-yl)piperazin-1-yl)propyl)quinolin-4-amine] as the compound, how does the antiproliferative effects (breast cancer cell lines) read?
A: very effective

Q: With Cc1ncc(C[n+]2csc(CCO)c2C)c(=O)[nH]1 [oxythiamine] as the compound, how does the tumor growth (tumor cells) read?
A: inhibit tumor growth

Q: Which induction of apoptosis ([1]; serum starved fibroblasts, FIG. 2B) does the source give for CCN(CCO)CCCC(C)Nc1ccnc2cc(Cl)ccc12 (stereo not drawn) [hydroxychloroquine] here?
A: induction of apoptosis

Q: Which results are given for C[C@H]1CC[C@@]2(C)C(=CC[C@@H]3[C@@H]2CC[C@]2(C)C(=O)CC[C@@H]32)C1 [3-β-methylandrost-5-en-17-one]?
A: skin papilloma development [2]: inhibits skin papilloma development; development of skin papillomas and carcinomas ([2]; topical 7,12-dimethylbenz(a)anthracene (DMBA), mice): even more potent chemopreventive effect
